# Earlier results in patent US5013557A, “Taste masking compositions comprising spray dried microcapsules containing sucralfate and methods for preparing same” (Warner-Lambert Company, priority 1989, dated 1991).
# How the values were obtained:
# [1] = sulfated disaccharide
# [2] = system: peptic ulcers; settings: in vivo
# [3] = pH values below about 3.5
# [4] = system: mucosa
# [5] = system: pepsin; settings: gel-like mass at ulcer site
# [6] = system: ulcerated mucosa
# [7] = system: EGF; settings: in vivo
substance,measurement,setting,value
"alpha-D-glucopyranoside, beta-D-fructofuranosyl-, octakis-(hydrogen sulfate), aluminum complex [sucralfate]",Absorption from the gastrointestinal tract,[1],not absorbed from the gastrointestinal tract
same,Healing of peptic ulcers,[2],accelerates the healing of peptic ulcers
same,Coagulation / gel formation,[3],coagulates to form a gel-like mass
same,Morphological and functional changes in the mucosa,[4],"mucus release, changes in ion transport and increased release and synthesis of prostaglandins"
same,Effect of protein barrier on bile salts and pepsin,[5],adsorbs bile salts and inhibits the potential ulcerogenic properties of pepsin
same,Affinity for ulcerated mucosa versus non-ulcerated mucosa,[6],greater affinity for ulcerated mucosa than for non-ulcerated mucosa
same,Effect of barrier on back diffusion of gastric acid,across the sucralfate protein barrier,blocks back diffusion of gastric acid
same,Effect of barrier on diffusion of hydrogen ions,protein barrier bound to ulcer site,blocks diffusion of hydrogen ions
same,EGF remaining in the stomach,[7],enable EGF to remain in the stomach at a high concentration
